Results published in PubChem BioAssay (NCI).
“And” between values parts separate entries of the source, which are not always exact repeats. Equal entries are not always repeated.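 Five compound concentrations were applied to cells in 96-well plates for 48 hours; endpoints were derived by simple linear interpolation of the resulting dose-response curve. Here, GI50 denotes the concentration required for 50% inhibition of growth. TGI is the concentration that stops growth completely.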

How the values were obtained:
Assay in all cases: NCI anticancer screen, dose series, 48 h
A549 NSCLC = system: A549 NSCLC
HL-60(TB) leukemia = system: HL-60(TB) leukemia
M14 melanoma = system: M14 melanoma
MALME-3M melanoma = system: MALME-3M melanoma
MOLT-4 leukemia = system: MOLT-4 leukemia
SF-539 CNS = system: SF-539 CNS
SK-MEL-2 melanoma = system: SK-MEL-2 melanoma
SK-OV-3 ovarian = system: SK-OV-3 ovarian
SN12C renal = system: SN12C renal
UO-31 renal = system: UO-31 renal

SMILES | TGI (A549 NSCLC) | TGI (HL-60(TB) leukemia) | TGI (M14 melanoma) | TGI (MALME-3M melanoma) | TGI (MOLT-4 leukemia) | TGI (SF-539 CNS) | TGI (SK-MEL-2 melanoma) | TGI (SK-OV-3 ovarian) | TGI (SN12C renal) | TGI (UO-31 renal) | GI50 (A549 NSCLC) [µM] | GI50 (HL-60(TB) leukemia) [µM] | GI50 (M14 melanoma) [µM] | GI50 (MOLT-4 leukemia) [µM] | GI50 (SF-539 CNS) [µM] | GI50 (SK-MEL-2 melanoma) [µM] | GI50 (SK-OV-3 ovarian) [µM] | GI50 (SN12C renal) [µM] | GI50 (UO-31 renal) [µM] | GI50 (MALME-3M melanoma) [µM]
Oc1cc2cc(-c3ccccc3)[nH]c2c2ccccc12 | > 100 µM | > 100 µM | 61 µM | 41.6 µM | > 82.6 µM | 97.1 µM | 43.5 µM | > 100 µM | > 92.9 µM | > 92.6 µM |  |  |  |  |  |  |  |  |  | 
Cc1cc(N(CCC#N)S(=O)(=O)c2ccccc2)ccc1C=O | > 100 µM | > 100 µM | > 100 µM | > 100 µM | > 100 µM | > 100 µM | > 100 µM | > 100 µM | > 100 µM | > 100 µM |  |  |  |  |  |  |  |  |  | 
O=C1c2c(O)cccc2C(C(=O)CCCCC(=O)C2c3cccc(O)c3C(=O)c3c(O)cccc32)c2cccc(O)c21 | 1.06 µM and 2.43 µM | 1.14 µM and 1.67 µM | 2.54 µM and 5.03 µM | 4.38 µM and 2.92 µM | 5.42 µM and 9.97 µM | 0.873 µM and 2.02 µM | 1.22 µM and 2.46 µM | 1.14 µM and 1.75 µM | 3.89 µM and 9.64 µM | 1.01 µM and 2.38 µM | 1.1 | 0.744 | 1.75 | 1.8 | 1.01 | 1.24 | 0.921 | 3.31 | 1.11 | 
c1ccc2c(c1)nc(NCCN1CCNCC1)c1c3ccccc3[nH]c21 | 1.21 µM | 1.36 µM | 2.81 µM | 3.82 µM | 0.887 µM | 2.2 µM | 2.89 µM | 8.53 µM | 1.18 µM | 2.05 µM | 0.206 | 0.308 | 1.24 | 0.0983 | 0.616 | 1.41 | 2.16 | 0.19 | 0.567 | 1.79
CC1Cc2c(N(C)C)ncnc2N(C)c2ccc(Cl)cc21 (centres undefined) | > 100 µM | 15.8 µM | > 100 µM | 60 µM | 27.3 µM | 12.2 µM | 57.3 µM | 72.1 µM | 37.1 µM | 72.4 µM | 10.7 | 2.81 | 2.39 | 3.52 | 2.93 | 5.88 | 4.93 | 10.2 | 4.4 | 3.73
COc1ccc(S(=O)(=O)N/N=C/C(=O)O)cc1 | > 1250 µM | 463 µM | > 1250 µM | > 1250 µM | 694 µM | 1080 µM | 826 µM | > 1250 µM | 1140 µM | > 1250 µM |  |  |  |  |  |  |  |  |  | 
O=C(CCCCCCCCC(=O)OCC1OC(n2cnc3c(=O)[nH]cnc32)C(O)C1O)OCC1OC(n2cnc3c(=O)[nH]cnc32)C(O)C1O (centres undefined) | > 100 µM | > 100 µM | > 100 µM | > 100 µM | > 100 µM | > 100 µM | > 100 µM | > 100 µM | > 100 µM | > 100 µM |  |  |  |  |  |  |  |  |  | 
